Assays:
[1] = molecular target: Mitogen-activated protein kinase 1 (Homo sapiens) (UniProt P28482); conditions: Compound concentration 1000.0 nM
[2] = molecular target: Tyrosine-protein kinase receptor UFO (Homo sapiens) (UniProt P30530); conditions: Compound concentration 1000.0 nM
[3] = molecular target: Dual specificity mitogen-activated protein kinase kinase 3 (Homo sapiens) (UniProt P46734); conditions: Compound concentration 1000.0 nM
[4] = system: Receptor-type tyrosine-protein kinase FLT3 (Homo sapiens), P36888 [D835H]; conditions: Compound concentration 1000.0 nM
[5] = molecular target: Serine/threonine-protein kinase RIO2 (Homo sapiens) (UniProt Q9BVS4); conditions: Compound concentration 1000.0 nM
[6] = molecular target: Tyrosine-protein kinase TXK (Homo sapiens) (UniProt P42681); conditions: Compound concentration 1000.0 nM
Tyrosine-protein kinase TXK (Homo sapiens), sequence (P42681 whole entry): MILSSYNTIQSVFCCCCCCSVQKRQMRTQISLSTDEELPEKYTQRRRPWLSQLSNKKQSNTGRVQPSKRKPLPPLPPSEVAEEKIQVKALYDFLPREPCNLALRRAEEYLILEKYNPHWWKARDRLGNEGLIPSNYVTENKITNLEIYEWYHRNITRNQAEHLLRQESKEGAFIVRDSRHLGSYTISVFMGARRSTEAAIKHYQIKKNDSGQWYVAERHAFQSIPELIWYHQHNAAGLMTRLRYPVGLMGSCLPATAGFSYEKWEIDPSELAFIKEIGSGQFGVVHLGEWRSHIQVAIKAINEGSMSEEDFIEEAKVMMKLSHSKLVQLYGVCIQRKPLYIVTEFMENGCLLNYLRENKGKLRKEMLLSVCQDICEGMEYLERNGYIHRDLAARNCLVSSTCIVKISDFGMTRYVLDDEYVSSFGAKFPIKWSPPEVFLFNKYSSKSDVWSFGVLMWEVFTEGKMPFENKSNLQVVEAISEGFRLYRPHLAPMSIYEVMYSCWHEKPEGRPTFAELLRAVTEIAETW

[7] = molecular target: 5'-AMP-activated protein kinase catalytic subunit alpha-1 (Homo sapiens) (UniProt Q13131); conditions: Compound concentration 1000.0 nM
5'-AMP-activated protein kinase catalytic subunit alpha-1 (Homo sapiens), sequence (Q13131 whole entry, looked up): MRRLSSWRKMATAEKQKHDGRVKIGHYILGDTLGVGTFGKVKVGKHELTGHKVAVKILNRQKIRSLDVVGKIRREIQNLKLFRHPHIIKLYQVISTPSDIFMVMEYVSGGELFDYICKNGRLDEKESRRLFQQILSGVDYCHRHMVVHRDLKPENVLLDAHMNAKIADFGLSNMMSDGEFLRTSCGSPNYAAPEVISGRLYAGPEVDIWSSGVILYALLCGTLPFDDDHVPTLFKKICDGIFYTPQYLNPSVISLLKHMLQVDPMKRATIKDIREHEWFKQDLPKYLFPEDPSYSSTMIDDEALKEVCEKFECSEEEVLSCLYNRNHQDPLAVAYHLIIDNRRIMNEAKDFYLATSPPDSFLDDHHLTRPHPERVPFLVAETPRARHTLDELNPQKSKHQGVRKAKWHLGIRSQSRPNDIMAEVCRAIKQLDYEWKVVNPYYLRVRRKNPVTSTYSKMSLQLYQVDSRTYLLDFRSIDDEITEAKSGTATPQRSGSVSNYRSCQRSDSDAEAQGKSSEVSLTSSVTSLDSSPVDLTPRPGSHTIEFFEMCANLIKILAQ

[8] = molecular target: Serine/threonine-protein kinase Nek6 (Homo sapiens) (UniProt Q9HC98); conditions: Compound concentration 1000.0 nM
[9] = molecular target: Epithelial discoidin domain-containing receptor 1 (Homo sapiens) (UniProt Q08345); conditions: Compound concentration 1000.0 nM
[10] = molecular target: Serine/threonine-protein kinase 38-like (Homo sapiens) (UniProt Q9Y2H1); conditions: Compound concentration 1000.0 nM
[11] = molecular target: Muscle, skeletal receptor tyrosine-protein kinase (Homo sapiens) (UniProt O15146); conditions: Compound concentration 1000.0 nM
[12] = molecular target: Serine/threonine-protein kinase Chk1 (Homo sapiens) (UniProt O14757); conditions: Compound concentration 1000.0 nM
[13] = system: Epidermal growth factor receptor (Homo sapiens), P00533 [L858R,T790M]; conditions: Compound concentration 1000.0 nM
[14] = molecular target: D(2) dopamine receptor (Homo sapiens) (UniProt P14416); conditions: Compound concentration 10.0 uM
[15] = molecular target: Mitogen-activated protein kinase 14 (Homo sapiens) (UniProt Q16539); conditions: Compound concentration 1000.0 nM
[16] = molecular target: Receptor tyrosine-protein kinase erbB-3 (Homo sapiens) (UniProt P21860); conditions: Compound concentration 1000.0 nM
[17] = molecular target: Casein kinase I isoform gamma-1 (Homo sapiens) (UniProt Q9HCP0); conditions: Compound concentration 1000.0 nM
Casein kinase I isoform gamma-1 (Homo sapiens), sequence (Q9HCP0 whole entry, looked up, canonical isoform): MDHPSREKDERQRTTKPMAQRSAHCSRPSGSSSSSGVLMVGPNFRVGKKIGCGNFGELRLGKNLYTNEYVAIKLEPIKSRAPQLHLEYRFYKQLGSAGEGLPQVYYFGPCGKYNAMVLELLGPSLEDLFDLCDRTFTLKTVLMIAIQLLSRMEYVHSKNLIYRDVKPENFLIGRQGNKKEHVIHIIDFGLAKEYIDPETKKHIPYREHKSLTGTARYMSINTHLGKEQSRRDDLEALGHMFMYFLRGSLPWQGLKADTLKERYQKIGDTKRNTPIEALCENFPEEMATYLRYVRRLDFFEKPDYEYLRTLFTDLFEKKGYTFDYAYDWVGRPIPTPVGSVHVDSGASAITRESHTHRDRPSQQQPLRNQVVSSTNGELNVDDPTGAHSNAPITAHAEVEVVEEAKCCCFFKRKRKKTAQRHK

[18] = molecular target: Protein kinase C theta type (Homo sapiens) (UniProt Q04759); conditions: Compound concentration 1000.0 nM
[19] = system: Receptor-type tyrosine-protein kinase FLT3 (Homo sapiens), P36888 [R834Q]; conditions: Compound concentration 1000.0 nM
[20] = system: Receptor-type tyrosine-protein kinase FLT3 (Homo sapiens), P36888 [UNDEFINED MUTATION]; conditions: Compound concentration 1000.0 nM
[21] = molecular target: Tyrosine-protein kinase Yes (Homo sapiens) (UniProt P07947); conditions: Compound concentration 1000.0 nM
[22] = molecular target: Cyclin-dependent kinase 19 (Homo sapiens) (UniProt Q9BWU1); conditions: Compound concentration 1000.0 nM
[23] = molecular target: Ribosomal protein S6 kinase alpha-4 (Homo sapiens) (UniProt O75676); conditions: Compound concentration 1000.0 nM
[24] = molecular target: Bone morphogenetic protein receptor type-2 (Homo sapiens) (UniProt Q13873); conditions: Compound concentration 1000.0 nM
[25] = molecular target: Muscarinic acetylcholine receptor M5 (Homo sapiens) (UniProt P08912); conditions: Compound concentration 10.0 uM
[26] = molecular target: Cyclin-dependent kinase 11A (Homo sapiens) (UniProt Q9UQ88); conditions: Compound concentration 1000.0 nM
[27] = molecular target: Serine/threonine-protein kinase/endoribonuclease IRE1 (Homo sapiens) (UniProt O75460); conditions: Compound concentration 1000.0 nM
[28] = molecular target: Mitogen-activated protein kinase kinase kinase 7 (Homo sapiens) (UniProt O43318); conditions: Compound concentration 1000.0 nM
[29] = system: Phosphatidylinositol 4,5-bisphosphate 3-kinase catalytic subunit alpha isoform (Homo sapiens), P42336 [E542K]; conditions: Compound concentration 1000.0 nM
[30] = molecular target: MAP kinase-activated protein kinase 2 (Homo sapiens) (UniProt P49137); conditions: Compound concentration 1000.0 nM
MAP kinase-activated protein kinase 2 (Homo sapiens), sequence (P49137 whole entry, looked up): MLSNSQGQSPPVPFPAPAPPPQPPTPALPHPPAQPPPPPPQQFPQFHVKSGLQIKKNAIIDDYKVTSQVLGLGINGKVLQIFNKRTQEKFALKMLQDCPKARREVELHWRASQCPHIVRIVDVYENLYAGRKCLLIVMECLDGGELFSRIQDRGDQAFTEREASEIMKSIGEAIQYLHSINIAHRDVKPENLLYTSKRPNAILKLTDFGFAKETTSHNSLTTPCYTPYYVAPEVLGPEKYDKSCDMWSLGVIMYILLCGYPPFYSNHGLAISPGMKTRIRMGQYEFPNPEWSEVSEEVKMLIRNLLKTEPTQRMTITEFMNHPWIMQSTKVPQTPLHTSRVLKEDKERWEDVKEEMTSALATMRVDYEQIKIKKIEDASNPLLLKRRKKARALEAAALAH

[31] = molecular target: Serine/threonine-protein kinase Nek10 (Homo sapiens) (UniProt Q6ZWH5); conditions: Compound concentration 1000.0 nM
[32] = molecular target: Serine/threonine-protein kinase mTOR (Homo sapiens) (UniProt P42345); conditions: Compound concentration 1000.0 nM
[33] = molecular target: 5-hydroxytryptamine receptor 2A (Homo sapiens) (UniProt P28223); conditions: Compound concentration 10.0 uM
5-hydroxytryptamine receptor 2A (Homo sapiens), sequence (P28223 whole entry): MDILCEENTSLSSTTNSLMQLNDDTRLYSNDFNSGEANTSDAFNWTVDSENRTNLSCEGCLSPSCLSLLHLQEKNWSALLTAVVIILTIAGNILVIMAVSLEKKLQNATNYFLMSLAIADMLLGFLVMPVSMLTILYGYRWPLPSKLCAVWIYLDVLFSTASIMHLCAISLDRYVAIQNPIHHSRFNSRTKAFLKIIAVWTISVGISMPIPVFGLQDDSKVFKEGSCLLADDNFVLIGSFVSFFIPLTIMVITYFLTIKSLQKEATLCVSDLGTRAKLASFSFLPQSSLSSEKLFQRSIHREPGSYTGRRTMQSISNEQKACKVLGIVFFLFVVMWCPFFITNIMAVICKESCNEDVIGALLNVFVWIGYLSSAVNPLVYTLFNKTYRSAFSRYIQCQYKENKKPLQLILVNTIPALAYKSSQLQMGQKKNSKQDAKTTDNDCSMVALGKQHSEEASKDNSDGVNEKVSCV

[34] = molecular target: Dual specificity mitogen-activated protein kinase kinase 7 (Homo sapiens) (UniProt O14733); conditions: Compound concentration 1000.0 nM
[35] = molecular target: Serine/threonine-protein kinase MARK1 (Homo sapiens) (UniProt Q9P0L2); conditions: Compound concentration 1000.0 nM
Serine/threonine-protein kinase MARK1 (Homo sapiens), sequence (Q9P0L2 whole entry, looked up): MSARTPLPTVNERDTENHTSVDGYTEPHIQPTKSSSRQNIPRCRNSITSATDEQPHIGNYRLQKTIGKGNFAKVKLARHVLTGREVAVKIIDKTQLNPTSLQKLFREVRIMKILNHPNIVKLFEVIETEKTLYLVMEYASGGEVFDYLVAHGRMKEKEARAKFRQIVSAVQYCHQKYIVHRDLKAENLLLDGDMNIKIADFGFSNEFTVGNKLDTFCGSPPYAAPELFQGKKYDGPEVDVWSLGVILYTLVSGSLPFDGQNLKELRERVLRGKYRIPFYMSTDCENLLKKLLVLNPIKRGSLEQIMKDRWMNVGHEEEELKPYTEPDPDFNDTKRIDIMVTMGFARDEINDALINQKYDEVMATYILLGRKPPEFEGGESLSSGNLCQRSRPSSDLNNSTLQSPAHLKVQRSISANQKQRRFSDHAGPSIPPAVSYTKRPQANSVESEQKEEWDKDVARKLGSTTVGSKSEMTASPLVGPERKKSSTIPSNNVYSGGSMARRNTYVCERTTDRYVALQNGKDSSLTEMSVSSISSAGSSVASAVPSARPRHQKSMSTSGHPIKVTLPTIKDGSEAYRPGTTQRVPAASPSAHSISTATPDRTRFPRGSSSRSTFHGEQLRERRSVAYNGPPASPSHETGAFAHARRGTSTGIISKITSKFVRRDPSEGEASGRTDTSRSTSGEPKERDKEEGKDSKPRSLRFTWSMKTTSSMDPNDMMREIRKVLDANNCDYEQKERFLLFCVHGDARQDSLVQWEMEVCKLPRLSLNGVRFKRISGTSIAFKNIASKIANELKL

[36] = molecular target: Mitogen-activated protein kinase 6 (Homo sapiens) (UniProt Q16659); conditions: Compound concentration 1000.0 nM
Mitogen-activated protein kinase 6 (Homo sapiens), sequence (Q16659 whole entry): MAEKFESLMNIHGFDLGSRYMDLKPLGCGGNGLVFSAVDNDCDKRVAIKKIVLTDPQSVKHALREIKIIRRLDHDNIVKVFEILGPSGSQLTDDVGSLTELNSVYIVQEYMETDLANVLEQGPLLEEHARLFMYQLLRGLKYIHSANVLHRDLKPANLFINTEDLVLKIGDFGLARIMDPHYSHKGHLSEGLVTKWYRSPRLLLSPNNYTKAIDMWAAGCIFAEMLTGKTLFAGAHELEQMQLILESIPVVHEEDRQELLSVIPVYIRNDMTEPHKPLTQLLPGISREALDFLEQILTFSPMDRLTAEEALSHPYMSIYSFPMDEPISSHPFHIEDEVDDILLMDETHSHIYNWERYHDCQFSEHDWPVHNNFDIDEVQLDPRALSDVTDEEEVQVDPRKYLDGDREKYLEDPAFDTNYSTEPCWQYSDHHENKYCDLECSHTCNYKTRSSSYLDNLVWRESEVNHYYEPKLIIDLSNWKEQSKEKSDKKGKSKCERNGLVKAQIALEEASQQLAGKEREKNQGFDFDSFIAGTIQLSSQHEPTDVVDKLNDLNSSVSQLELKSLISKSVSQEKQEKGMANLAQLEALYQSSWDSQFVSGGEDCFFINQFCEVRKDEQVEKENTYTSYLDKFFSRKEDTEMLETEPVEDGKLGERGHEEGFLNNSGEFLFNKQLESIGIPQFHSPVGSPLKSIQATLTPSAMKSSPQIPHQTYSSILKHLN

[37] = molecular target: Mitogen-activated protein kinase 15 (Homo sapiens) (UniProt Q8TD08); conditions: Compound concentration 1000.0 nM
[38] = molecular target: Serine/threonine-protein kinase SIK3 (Homo sapiens) (UniProt Q9Y2K2); conditions: Compound concentration 1000.0 nM
[39] = molecular target: Serine/threonine-protein kinase 17B (Homo sapiens) (UniProt O94768); conditions: Compound concentration 1000.0 nM
[40] = molecular target: Activin receptor type-1 (Homo sapiens) (UniProt Q04771); conditions: Compound concentration 1000.0 nM
Activin receptor type-1 (Homo sapiens), sequence (Q04771 whole entry): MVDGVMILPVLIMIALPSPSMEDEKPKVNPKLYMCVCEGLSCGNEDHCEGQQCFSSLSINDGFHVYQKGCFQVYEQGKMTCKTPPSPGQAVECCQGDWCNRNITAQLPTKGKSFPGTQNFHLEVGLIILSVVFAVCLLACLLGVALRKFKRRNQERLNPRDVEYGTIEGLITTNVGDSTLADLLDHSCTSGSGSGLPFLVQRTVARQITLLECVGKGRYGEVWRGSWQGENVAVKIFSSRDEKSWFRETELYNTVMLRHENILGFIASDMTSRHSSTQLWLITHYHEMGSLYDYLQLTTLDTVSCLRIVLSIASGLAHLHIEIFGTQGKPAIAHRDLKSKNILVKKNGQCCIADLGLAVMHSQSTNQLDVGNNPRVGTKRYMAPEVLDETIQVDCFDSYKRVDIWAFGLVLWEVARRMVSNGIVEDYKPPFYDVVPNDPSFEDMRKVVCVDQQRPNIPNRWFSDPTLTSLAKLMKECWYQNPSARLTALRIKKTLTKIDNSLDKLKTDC

[41] = molecular target: Serine/threonine-protein kinase PLK4 (Homo sapiens) (UniProt O00444); conditions: Compound concentration 1000.0 nM
[42] = molecular target: Wee1-like protein kinase 2 (Homo sapiens) (UniProt P0C1S8); conditions: Compound concentration 1000.0 nM
Wee1-like protein kinase 2 (Homo sapiens), sequence (P0C1S8 whole entry, looked up): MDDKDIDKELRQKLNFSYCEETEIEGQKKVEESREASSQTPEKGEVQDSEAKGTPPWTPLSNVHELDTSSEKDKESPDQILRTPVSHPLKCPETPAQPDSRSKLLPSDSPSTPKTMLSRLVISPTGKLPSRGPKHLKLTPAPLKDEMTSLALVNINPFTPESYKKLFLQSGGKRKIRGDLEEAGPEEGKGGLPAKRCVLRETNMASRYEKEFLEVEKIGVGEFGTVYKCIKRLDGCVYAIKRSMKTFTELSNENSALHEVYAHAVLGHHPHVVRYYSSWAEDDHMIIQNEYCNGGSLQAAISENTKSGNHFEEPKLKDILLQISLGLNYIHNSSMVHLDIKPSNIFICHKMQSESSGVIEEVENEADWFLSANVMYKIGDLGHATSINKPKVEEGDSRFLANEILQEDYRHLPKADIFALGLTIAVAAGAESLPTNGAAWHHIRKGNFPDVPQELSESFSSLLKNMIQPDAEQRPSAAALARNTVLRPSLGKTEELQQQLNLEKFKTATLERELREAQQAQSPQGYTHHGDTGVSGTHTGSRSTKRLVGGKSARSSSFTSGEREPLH

[43] = system: Receptor-type tyrosine-protein kinase FLT3 (Homo sapiens), P36888 [UNDEFINED MUTATION]; conditions: Compound concentration 1000.0 nM; remark: listed apart in the source
[44] = molecular target: Serine/threonine-protein kinase Nek3 (Homo sapiens) (UniProt P51956); conditions: Compound concentration 1000.0 nM

CCC(=O)N[C@H]1CC[C@@H](C(=O)N(C)c2ccc(-c3nc4ccccc4o3)cc2)C1 [BI 99179]
inactive: residual activity [1] 76% | residual activity [2] 87% | residual activity [3] 77% | residual activity [4] 95% | residual activity [5] 84% | residual activity [6] 100% | residual activity [7] 99% | residual activity [8] 85% | residual activity [9] 100% | residual activity [10] 79% | residual activity [11] 100% | residual activity [12] 100% | residual activity [13] 100% | inhibition [14] 14.3% | residual activity [15] 100% | residual activity [16] 100% | residual activity [17] 90% | residual activity [18] 84% | residual activity [19] 100% | residual activity [20] 100% | residual activity [21] 82% | residual activity [22] 100% | residual activity [23] 100% | residual activity [24] 98% | inhibition [25] -0.421% | residual activity [26] 97% | residual activity [27] 91% | residual activity [28] 86% | residual activity [29] 77% | residual activity [30] 97% | residual activity [31] 80% | residual activity [32] 92% | inhibition [33] 2.34% | residual activity [34] 82% | residual activity [35] 100% | residual activity [36] 100% | residual activity [37] 100% | residual activity [38] 84% | residual activity [39] 84% | residual activity [40] 85% | residual activity [41] 78% | residual activity [42] 96% | residual activity [43] 91% | residual activity [44] 66%

CCC(=O)N[C@@H]1CC[C@H](C(=O)N(C)c2ccc(-c3nc4ccccc4o3)cc2)C1 [BI 99990]
inactive: residual activity [1] 88% | residual activity [2] 100% | residual activity [3] 91% | residual activity [4] 100% | residual activity [5] 100% | residual activity [6] 77% | residual activity [7] 91% | residual activity [8] 99% | residual activity [9] 100% | residual activity [10] 100% | residual activity [11] 100% | residual activity [12] 100% | residual activity [13] 100% | inhibition [14] 18.6% | residual activity [15] 95% | residual activity [16] 100% | residual activity [17] 100% | residual activity [18] 76% | residual activity [19] 100% | residual activity [20] 94% | residual activity [21] 100% | residual activity [22] 82% | residual activity [23] 100% | residual activity [24] 100% | inhibition [25] 15.4% | residual activity [26] 100% | residual activity [27] 100% | residual activity [28] 100% | residual activity [29] 84% | residual activity [30] 87% | residual activity [31] 100% | residual activity [32] 99% | inhibition [33] -9.08% | residual activity [34] 98% | residual activity [35] 86% | residual activity [36] 100% | residual activity [37] 100% | residual activity [38] 100% | residual activity [39] 99% | residual activity [40] 94% | residual activity [41] 100% | residual activity [42] 100% | residual activity [43] 100% | residual activity [44] 73%

From ChEMBL document CHEMBL4507280 (2021)
